Assays:
Type in all cases: binding
SARS-CoV-2 Nsp3 Mac1 [1] = molecular target: T1, SARS-CoV-2 Nsp3 Mac1 (Severe acute respiratory syndrome coronavirus 2, UniProt P0DTD1); conditions: fragments 0.188 to 3 mM concentration response
SARS-CoV-2 Nsp3 Mac1 [2] = molecular target: T1, SARS-CoV-2 Nsp3 Mac1; experiment: biochemical
SARS-CoV-2 Nsp3 Mac1 [3] = molecular target: T1, SARS-CoV-2 Nsp3 Mac1; experiment: biochemical; conditions: ADPr-peptide displacement from His6-Mac1; ± estimated SE

Question: How did the “effect on apparent melting temperature (Tma) in DSF, in words” value (shortened to “effect on apparent melting temperature”) (SARS-CoV-2 Nsp3 Mac1 [1]) turn out when `Cc1c(C)n(Cc2ccco2)c2ncnc(N)c12` [ZINC3888754] was run?
Answer: stabilized Mac1

Question: For `Cn1cnc2c(N)nc(N)nc21` [ZINC26180281], which “effect on apparent melting temperature” value (SARS-CoV-2 Nsp3 Mac1 [1]) is on record?
Answer: stabilized Mac1

Question: What about the Kd (SARS-CoV-2 Nsp3 Mac1 [2]) of the same compound?
Answer: 2900 ± 700 µM

Question: And the IC50 (SARS-CoV-2 Nsp3 Mac1 [3])?
Answer: > 2000 µM

Question: Which results are given for `CN(CC1CCCOC1)c1ncc(O)cn1` (stereo not drawn) [ZINC1337772170]?
Answer: effect on apparent melting temperature (Tma) in DSF, in words (SARS-CoV-2 Nsp3 Mac1 [1]): not identified as binders; IC50 (SARS-CoV-2 Nsp3 Mac1 [3]): 971 µM

Question: How did the “effect on apparent melting temperature” value (SARS-CoV-2 Nsp3 Mac1 [1]) turn out when `Nc1nc2nccnc2c(=O)[nH]1` [pterin] was run?
Answer: not identified as binders

Question: And the IC50 (SARS-CoV-2 Nsp3 Mac1 [3])?
Answer: 784 µM

Question: How did the “effect on apparent melting temperature” value (SARS-CoV-2 Nsp3 Mac1 [1]) turn out when “adenosine diphosphate ribose [ADP-ribose, reference compound]” was run?
Answer: substantial elevation
